Measured values from patent publication US9180163B2, “Parstatin peptides” (priority 2009, dated 2015).
pIC50: −log10 of the molar value. Ends that are not written are not given here. * marks the point of attachment. FITC = O=C1OC2(c3ccc(O)cc3Oc3cc(O)ccc32)c2ccc(NC(=S)*)cc21

Legend:
[1] = system: chick chorioallontoic membrane (CAM); type: in vivo; details: 10 nmoles, 48 h
Protocol: The in vivo chick chorioallontoic membrane (CAM) angiogenesis model was used to evaluate the effect of parstatin (1-41) in angiogenesis. On incubation day 9 of fertilized chicken eggs, an O-ring (1 cm^2) was placed on the surface of the CAM and the vehicle or the indicated substances were placed inside this restricted area. After 48 h, CAMs were fixed in saline-buffered formalin, photographed, and analyzed using the Scion Image software (Scion Image Release Beta 4.0.2 software; Scion Corporation, Frederick, Md.). Image analysis was performed on at least 18 eggs for each group. Vessel number and length were evaluated by pixel counting, and the results expressed as mean percentage of control ±SE. Statistical analyses were performed using a Student's t test.

HUVEC cells [2] = assay: Matrigel capillary tube-like formation; type: cell-based, human; details: 5% FBS, 18 h, parstatin (1-41) 0.3 to 10 μM, other peptides 10 μM
Protocol: Primary human umbilical vein endothelial cells (HUVEC cells) were obtained from freshly delivered umbilical cords from caesarean births and were grown in M199 medium with 20% fetal bovine serum (FBS) supplemented with endothelial cell growth supplement and heparin. One of the most specific tests for angiogenesis is the measurement of the ability of endothelial cells to form capillary-like structures (i.e., tube formation). Tube formation is a multi-step process involving cell adhesion, migration and differentiation. Tube formation can be enhanced by use of Matrigel or fibrin clots to coat plastic culture dishes and it is an accepted model of angiogenesis.
Matrigel™ (Becton Dickinson Labware, N.J., USA) is a mixture of basement membrane components extracted from the Englebreth-Holm-Swarm tumor. […] Matrigel™ (250 μl) was added to each well of a 24-well plate and allowed to polymerize. A suspension of 40,000 HUVEC cells in M199 medium containing 5% FBS was added into each well coated with Matrigel™.
Cells were treated with increasing concentrations of human parstatin (1-41), scrambled parstatin, or parstatin (24-41) fragment. After 18 hours of incubation, the medium was removed, and the cells were fixed and stained, and tube-like structures were quantitated.

HUVEC cells [3] = assay: Fibrin gel in vitro angiogenesis assay; type: cell-based, human; details: VEGF/bFGF-induced, 24 h; other peptides 10 μM
Protocol: The ability of endothelial cells to form three-dimensional structures was analyzed using a Fibrin gel in vitro angiogenesis assay kit (Chemicon International Inc. Temecula, Calif.). Fibrin gels were formed in 48-well plates by mixing fibrinogen and thrombin solutions, according to manufacturer instructions. Cells (40,000 cells/well) were then added and cultured in medium containing 2% FBS for 18 h. After the addition of a second layer of fibrin gel, endothelial cells sandwiched within fibrin gels were cultured in serum-free medium containing 0.5% bovine serum albumin (BSA) and the combination of VEGF/bFGF for 24 h. Where indicated, parstatin (1-41) or other indicated peptides were added. Capillary-like network was photographed and measured.

HUVEC cells [4] = assay: modified Boyden's chamber cell migration assay; type: cell-based, human; details: toward 5% FBS, 6 h; other peptides 10 μM
Protocol: HUVEC cell migration was assessed using a modified Boyden's chamber assay, i.e., in Transwell cell culture chambers (Corning Life Sciences, Acton, Mass.). Briefly, polycarbonate filters with 8 μm pores were used to separate the upper and the lower chambers. Cells were added to the upper compartment at a density of 10,000 cells/100 μl in serum-free medium containing 0.5% BSA and incubated for 6 h. Directional migration (chemotaxis) in the lower chamber was induced by addition of medium containing 5% FBS to the lower chamber. Where indicated parstatin or other peptides were added to lower chamber.
Cells on the filters were fixed and stained. The non-migrated cells (cells in upper surface) were removed by wiping with cotton swabs. The cells on the lower surface were counted manually under microscope in six predetermined fields. Parstatin (1-41) attenuated chemotactic cell migration through microporous membrane in response to serum (FIG. 3C). When human parstatin was combined with 5% FBS, the number of migrated cells was reduced in concentration-dependent manner.

HUVEC cells [5] = assay: MTT cell proliferation assay; type: cell-based, human
Protocol: Cell proliferation was evaluated using a 3-(4,5-[…])-2,5-diphenyltetrazolium bromide (MTT, Sigma-Aldrich, St. Louis, Mo.) assay. Endothelial cells (10,000/well) were seeded in 24-well tissue culture plates and incubated with growth medium for 24 h. Cells were then treated with the vehicle or the indicated peptides in medium containing 5% FBS for 1 to 3 days. After 24, 48, or 72 hours, MTT solution (5 mg/ml) was added to each well and incubated for 3 h at 37° C. The blue formazan crystals were solubilized by addition of DMSO and absorbance at 450 nm was recorded using a 96-well plate reader.

HUVEC cells [6] = assay: [3H]-thymidine incorporation (DNA synthesis); type: cell-based, human; details: serum, bFGF or VEGF; comparison peptides 10 μM
Protocol: The ability of parstatin (1-41) to inhibit DNA synthesis of endothelial cells was assessed in thymidine incorporation assays. HUVEC cells were grown until 60-80% confluent in 24-well plates. Cells were treated with indicated peptides in serum-free medium containing either 0.5% BSA, or VEGF, or bFGF, or medium containing 5% FBS, or epidermal growth factor (EGF), or heparin-binging EGF (HB-EGF) for 18 hours. All cells were pulsed with 0.5 μCi/ml [3H]-thymidine (ICN Biomedicals Inc., Irvine Calif.) for additional 6 h. Radioactivity incorporated into DNA was determined in liquid scintillation counter.

[7] = system: Erk1/2 (p42/44 MAPK) in HUVEC cells; assay: Erk1/2 phosphorylation immunoblot (MAP kinase pathway); type: cell-based, human; details: pretreatment 1 h, 10 μM; stimulated by FBS, bFGF or VEGF
Protocol: The MAPK (Erk1/2, p42/44) cascade mediates mitogenesis. […] HUVEC cells were cultured in 35 mm tissue culture dishes. After reaching 80% confluency, cells were growth factor-starved and subsequently stimulated for 10 min with vehicle or indicated agents. In combination experiments, cells were pretreated with parstatin or other peptides for 10 to 60 min.
Attached cells were lysed with Laenmli sample buffer, resolved in 10% SDS-PAGE, and transferred to nitrocellulose membranes. Membranes were incubated with primary antibodies against phospho p42/44 mitogen-activated protein kinases (p-Erk1/2, New England Biolabs, UK) and p42/44 Erk1/2 (t-Erk1/2, New England Biolabs, UK). Membranes were then probed with secondary antibodies horseradish peroxidase-conjugated, and proteins were visualized by chemiluminescent detection.

caspase-3 in HUVEC cells = assay: caspase-3 activity colorimetric assay; type: cell-based, human; details: 0.5% BSA, 24 h; mouse and scrambled 10 μM
Protocol: To further support the involvement of caspases in parstatin (1-41) pro-apoptotic effect, its effect on caspase-3 activation was examined using a commercially available kit (Promega, Madison, Wis.). The colorimetric substrate, Ac-DEVD-p-nitroanilide, is cleaved by caspase-3 to release yellow p-nitroanilide, was measured by absorbance at 405 nm to detect caspase activation.
HUVEC cells were grown in 60 mm tissue culture plates until approximately 80% confluency. Cells were treated in absence or in presence of 0.5% BSA or bFGF for 24 h in serum-free medium. Suspended and adherent cells were collected and lysed. Caspase-3 activity was measured by absorbance at 405 nm.

[8] = system: corneas of Sprague-Dawley rats; assay: corneal histopathology after chemical burn (vessels, neutrophils); type: in vivo, rat; details: 2×100 μg, day 7
Protocol: After the above-described processes were performed, the rats were sacrificed (7 days) and the eyes were excised. All eyes were sectioned (4 μm) and stained with hematoxylin-eosin. Two independent pathologists, in a blinded manner, evaluated the microvessel density and the inflammatory cell infiltration in each slide. Total corneal vascular vessels and neutrophils were counted at 200× in seven representative stained tissue sections for each eye, covering all cornea area and having a similar distance from the central burn.

HUVEC cells [9] = assay: cellular uptake of FITC-labeled peptides by flow cytometry; type: cell-based, human; details: 30 min exposure
Protocol: HUVEC cells in the exponential growth phase were exposed to various concentrations of parstatin (1-41)-FITC in serum-free medium containing 0.5% BSA. After incubation times ranging from 1 min to 60 min, cells were washed extensively. Washed cells were incubated for 10 min with trypsin at 37° C. to remove the cell surface-bound parstatin. Suspended cells were subsequently centrifuged, washed, and analyzed on FACS flow cytometer (EPICS XL-MCL; Coulter).
The uptake of a given parstatin (1-41)-FITC into cells was assessed by the change of the FITC-positive cell population compared with untreated control cell samples.

HUVEC cells [10] = assay: cellular uptake by fluorescence microscopy; type: cell-based, human; details: FITC-labeled peptide
Protocol: 4′,6-Diamidino-2-phenylindole (DAPI) was used to stain nuclei of all cells. Cell fluorescence was imaged on a Nikon Eclipse TE2000-U microscope. FITC and DAPI were excited using 490-nm and 360-nm filters, respectively. The emission signals were sorted out using 514 and 460 filters for the FITC and DAPI, respectively. HUVEC cells were treated with 10 μM of parstatin (1-41)-FITC for different time intervals. […] FITC signal was detected as early as 5 min of cell exposure to parstatin (1-41)-FITC (FIG. 9C).

Row | Substance | inhibition of the basal level of angiogenesis in CAMs [1] | tube formation on Matrigel (HUVEC cells [2]) | capillary-like network (total capillary tube length) in fibrin gels (HUVEC cells [3]) | chemotactic cell migration (HUVEC cells [4]) | HUVEC cell proliferation (HUVEC cells [5]; 10 μM) | DNA synthesis in HUVEC cells (HUVEC cells [6]) | activation of Erk1/2 [7] | caspase-3 activity (caspase-3 in HUVEC cells) | mean number (density) of vascular vessels per section [8] | numbers of neutrophils [8] | tube formation on Matrigel (HUVEC cells [2]; listed as mouse parstatin (1-41)) | pIC50 (HUVEC cells [5]; stimulus not given, read-out: half-maximal concentration, inhibiting cell proliferation) | fraction of FITC-positive cell population (HUVEC cells [9]) | cell fluorescence in microscope images (HUVEC cells [10])
1 | LRTNASLLVPFLTARAKSSGTREAADPPRLMCLRPLARRCG (Scrambled synthetic peptide) [scrambled parstatin, reference compound] | did not cause any significant effect | did not affect | did not affect | without effect | without effect | did not cause any significant effect | did not alter | without effect | 77.17±3.11 | 39±2.54 cells/corneal section | – | – | – | –
2 | MGPRRLLIVALGLSLCGPLLSSRVPMSQPESERTDATVNPR [mouse parstatin, 1-41-amino acids cleaved N-terminal fragment of mouse PAR-1] | – | effective in inhibiting tube formation | less pronounced, but still significant, inhibitory effect | significant inhibitory effect, but to a lower extent | – | significant, but less effective inhibitory effect | less pronounced effect | moderate increase | – | – | less pronounced, but still significant, inhibitory effect | 4.70 | – | –
3 | TRARRPESKATNATLDPRK-FITC (TRARRPESKATNATLDPRK(FITC); also: FITC linked to the C-terminal lysine; listed as Homo sapiens) [parstatin (24-41)-FITC, FITC conjugated to human parstatin (24-41) fragment] | – | – | – | – | – | – | – | – | – | – | – | – | minimal and comparable with that of control cells | no fluorescence was observed
